The values below are quoted from earlier work in publication PMC9406037, “Design, Synthesis and Activity of New N^1-Alkyl Tryptophan Functionalized Dendrimeric Peptides against Glioblastoma” (Biomolecules, 2022).

For data set [1] the following is noted: alpha-tocopherol at ca 4.4 µM. The text has this:
Taking into account structural differences between these two groups of dendrimers, the possible primary mechanism in the DPPH conditions involves hydrogen and electron transfer from the above electron-rich center and to less extent from numerous indole rings. For the same reasons, the highest reductive capabilities (FRAP) were expressed by compound 24. All compounds were very effective in s ...

The test system of data set [2] is U87MG cells cultured in spheroids. As to conditions: 20 µM alone or in combination with iododeoxyuridine (IUdR 1 µM) for 67 h; clonogenicity observed 10 day later. The text has this: Another important issue which has to be taken into consideration is the time of treatment with potential drugs and mode of action. […] […] However, combined treatment o ...

For “trans-3,4,5′-trihydroxystilbene [Resveratrol]”, in data set [1], the “radical scavenging potency relative to Trolox, ABTS model” value is “much more potent than Trolox” and the “radical scavenging potency relative to Trolox, DPPH model” value is given as “much more potent than Trolox”. In addition, the “effect on cell viability or clonogenicity” value in data set [2] is on record as “without any effect on cell viability or clonogenicity”.

On to `Cc1c(C)c2c(c(C)c1O)CC[C@@](C)(CCC[C@H](C)CCC[C@H](C)CCCC(C)C)O2` [alpha-tocopherol], for which, in data set [1], the “radical scavenging potency relative to Trolox, ABTS model” value is about 5.5 and the “radical scavenging potency relative to Trolox, DPPH model” value is “slightly lower”.
